In US20230226160A1, “COMPOSITIONS AND METHODS FOR TREATING BACTERIAL INFECTIONS” (MUCPHARM PTY LTD, priority 2020, published 2023):
“Also recorded” adds a separate entry of the source.

How the values were obtained:
Type in all cases: cell-based
[1] = test system: Staphylococcus aureus ATCC 6538 biofilms; test: Anti-biofilm activity on preformed 24-hour/48-hour Staphylococcus aureus ATCC 6538 biofilms, 4-hour treatment, crystal violet, 590 nm; settings: 24-hour biofilm
Description: The plates were then incubated at 37° C. for 4 hrs. After treatment, the cells were fixed with 99% methanol and stained with 1% crystal violet. The stained biofilm was dissolved with 33% acetic acid and the absorbance was read at 590 nm. The results were analyzed using Prism GraphPad software.

[2] = test system: Pseudomonas aeruginosa ATCC 31461 biofilms; test: Anti-biofilm activity on 48-hour Pseudomonas aeruginosa ATCC 31461 biofilms, 4-hour treatment, crystal violet; settings: FIG. 6
Description: Each plate was then incubated at 37° C. for 24 hrs and, afterwards, the plates were treated with various concentrations of acetylcysteine, bromelain and/or ampicillin. The plate was then incubated at 37° C. for 4 hrs.
(§1) After treatment, the cells were fixed with 99% methanol and stained with 1% crystal violet. The stained biofilm was dissolved with 33% acetic acid and the absorbance was read at 590 nm. The results were analyzed using Prism GraphPad software.

[3] = test system: Pseudomonas aeruginosa PA01 398 biofilms; test: Anti-biofilm activity on 48-hour Pseudomonas aeruginosa PA01 398 biofilms, 4-hour combined or staged treatment, crystal violet; settings: NAC 25 and 50 mg/ml single agent, FIG. 9
Description: Each plate was then incubated at 37° C. for 24 hrs and, afterwards, the plates were treated with various concentrations of acetylcysteine, bromelain, gentamicin, ampicillin and combinations thereof. The plate was then incubated at 37° C. for 4 hrs.
as §1
Each plate was then incubated at 37° C. for 24 hrs and, afterwards, the plates were treated with various concentrations of acetylcysteine, bromelain and either gentamicin or ampicillin. The plate was then incubated at 37° C. for 4 hrs. After treatment, the cells were fixed with 99% methanol and stained with 1% crystal violet. The stained biofilm was dissolved with 33% acetic acid and the absorbance was read at 590 nm. The results were analyzed using Prism GraphPad software.
In the first series of experiments, the results of which are shown in FIG. 12, 48-hour Pseudomonas aeruginosa PA01 398 biofilms were treated for 4-hours with the compositions shown in the table including ampicillin (50-200 μg/mL), bromelain (25 μg/mL) and acetylcysteine (10 mg/mL) in 5% glucose. […]

[4] = test system: biofilm; test: Inventor's summary statements on biofilm experiments; settings: at therapeutically appropriate dosages

Row | Molecule | effect on biofilm eradication ([1]; acetylcysteine 20 mg/mL single treatment, 4-hour, FIG. 3) | effectiveness on biofilm ([2]; acetylcysteine 25 mg/mL single agent) | effectiveness on biofilm ([2]; acetylcysteine 50 mg/ml single agent) | effect on biofilm as single agent [3] | effect of acetylcysteine alone on biofilm [4] | biofilm eradication ([1]; gentamicin 12 μg/ml single agent, 4-hour, FIG. 5) [%] | effectiveness of single agent (eradication) ([1]; gentamicin 16 μg/ml single agent, compared to the concentration in combination, FIG. 5) [%] | biofilm eradication ([1]; gentamicin 35 μg/ml single agent, most effective gentamicin treatment)
1 | CC(=O)N[C@@H](CS)C(=O)O [acetylcysteine] | no effect on biofilm eradication | not effective | moderately effective | antagonistic | no appreciable effect; also recorded: relatively ineffective |  |  | 
2 | gentamicin |  |  |  |  |  | 2 | 5 | approximately 60%
